The values that follow come from patent US20230139328A1, “DOSAGE FORMS FOR IMPROVING ORGAN TRANSPLANTATION, GRAFT VERSUS HOST DISEASE AND STEM CELLS TRANSPLANTS” (Aphios Corporation, priority 2020, published 2023).

For series [1], the system named is T84 intestinal epithelia. Conditions: cited from earlier work.
The subject of series [2] is neutrophil migration across HUVEC. The series is described as follows: Neutrophil transendothelial migration (TEM) restoration studies with PKC inhibitors in HUVEC. It counts as cell-based, human. Conditions: 100 nM Bryostatin-1, 100 nM LTB4, 3 h. The method, then:
HUVEC were pretreated with G0-6983, a PKC inhibitor with dose dependent specificities for classical vs. novel PKC isoforms for 30 minutes prior to addition of Bryostatin-1 (100 nM) to block neutrophil migration. […] Neutrophil migration towards 100 nM LTB4 was initiated by adding LTB4 to the lower well.
Neutrophil Transendothelial Migration (TEM) Restoration Studies: HUVECs were pretreated with Go-6983 (1, 10, 100 nM), or Go-6976 (1, 10,100 nM) for 30 minutes, then spiked with 100 nM Bryostatin-1 for 1 hour. HUVECs previously nucleofected with PKC-δ, -ε, or control siRNA were just treated in Bryostatin-1 for 1 hour. HUVECs were washed three times and placed in a new plate containing either 500 IL 100 nM LTB4, or HBSS alone for control. Neutrophils were allowed to migrate for 3 h at 37° C. Migration was stopped by removing the inserts and migration was measured using the MPO assay.
Myeloperoxidase Assay: Neutrophil migration was measured using myeloperoxidase (MPO) analysis. Cell culture inserts were first removed, and plates were spun at 1,500 RPM for 5 min. The supernatant was removed, and MPO activity was measured using TMB/peroxide as chromogen. The reaction was stopped with sulfuric acid and absorbance was read at 450 nm using a microplate reader. All experiments were performed n=6. Data was expressed as “% neutrophil migration”, which allowed cumulative statistical analysis to be done and account for unpreventable batch-to-batch variations.

In series [3] the test system is PKC-δ siRNA nucleofected HUVEC. Kind of series: LTB4 mediated neutrophil migration across PKC-δ siRNA nucleofected HUVEC. Format: cell-based, human. Conditions: 100 nM, 1 h; PKC-δ knockdown. From the text: Because studies in FIG. 8 could not discriminate between PKC-δ and […] isoforms mediating the effect of Bryostatin-1, we knocked down individual isoforms using siRNA technology. In order to verify that we could knock down particular isoforms of PKC, specifically PKC-8 and PKC-ε isoforms in HUVEC, siRNA which selectively bind to and eliminate human PKC-8 and PKC-ε mRNAs were nucleofected into HUVEC prior to migration studies. […] HUVEC cells treated using these approaches were then subjected to chemotaxis studies with Bryostatin-1 to elucidate the mechanism of Bryostatin-1 mediated inhibition of LTB4 induced PMN migration.
Neutrophil Transendothelial Migration (TEM) Restoration Studies: HUVECs were pretreated with Go-6983 (1, 10, 100 nM), or Go-6976 (1, 10,100 nM) for 30 minutes, then spiked with 100 nM Bryostatin-1 for 1 hour. […] Migration was stopped by removing the inserts and migration was measured using the MPO assay.
Myeloperoxidase Assay: Neutrophil migration was measured using myeloperoxidase (MPO) analysis. […] The supernatant was removed, and MPO activity was measured using TMB/peroxide as chromogen. The reaction was stopped with sulfuric acid and absorbance was read at 450 nm using a microplate reader. […] Data was expressed as “% neutrophil migration”, which allowed cumulative statistical analysis to be done and account for unpreventable batch-to-batch variations. […]

The test system of series [4] is transplanted kidney. The series is described as follows: Porcine kidney auto-transplantation model (20 h cold storage, reperfusion). Format: in vivo, German Landrace pigs. Conditions: pig. The method, then: We used the porcine kidney auto-transplantation model with the modified PET formulation of Bryostatin-1 in thirty-two female German Landrace pigs weighing 20 to 40 kg. Briefly, animals had surgery for graft retrieval followed by a standard graft cold storage time (CST) of 20 h. During CST, kidneys were preserved with histidine-tryptophan-ketoglutarate (HTK)-solution either supplemented with 100 nM Bryostatin-1 or an equivalent volume of placebo (PET formulation). Donor animals then had surgery again for renal auto-transplantation and the graft was transplanted orthotopically. Thus, the contralateral kidney was removed to measure specifically function of the transplanted kidney. Time of reperfusion was 8 h and sample collection included cortical renal biopsies, tissue block samples at the end of the study and blood as well as urine analyses.

For series [5] the following is noted: cited from earlier work.
Where [6] appears, read: HTK-solution with 100 nM Bryostatin-1 during 20 h cold storage vs placebo.

Structures are written as SMILES. “Also recorded” adds a separate entry of the source.

For the compound `CCC/C=C/C=C/C(=O)O[C@H]1/C(=C/C(=O)OC)C[C@H]2C[C@H]([C@@H](C)O)OC(=O)C[C@H](O)C[C@@H]3C[C@H](OC(C)=O)C(C)(C)[C@](O)(C[C@@H]4C/C(=C/C(=O)OC)C[C@H](/C=C/C(C)(C)[C@]1(O)O2)O4)O3` [Bryostatin-1], in series [1], the “barrier function and TNF-α induced barrier loss” value was “enhances barrier function and inhibits barrier loss induced by TNF-α”. The “effect on LTB4 induced neutrophil migration, HUVEC” value in series [2] is recorded as “reversed; also recorded: significantly suppressed LTB4 induced migration”. The “effect on LTB4 mediated neutrophil migration in PKC-δ siRNA nucleofected HUVEC” value in series [3] is “restored the normal level of neutrophil trans endothelial migration; also recorded: will not inhibit LTB4 mediated neutrophil migration”. In series [4] (100 nM Bryostatin-1 in HTK-solution), the “serum/plasma and urinary inflammatory biomarkers” value is given as “not altered”. Also, in series [4] (100 nM Bryostatin-1 in HTK-solution, 6 hours), the “kidney histology scores at 6 hours” value is given as “significantly improved”. For the same compound, in series [4] (setting [6]), the “kidney ultrastructural damage scores” value was “significantly reduced” and the “neutrophils entering the re-perfused kidney” value is “significantly prevented”. For the same compound, the “major side effects associated with use” value in series [5] (Phase II trials, combination with other drugs, cancers) was “myalgias, nausea, and vomiting”. Further, the “cardiovascular disturbances or edema” value in series [5] (clinical use) was “no cardiovascular disturbances or evidence of edema have been observed”. Besides, the “adverse effects at dosing ranges higher than 100 ng/ml plasma level” value in series [5] (healthy subjects and cancer patients) is recorded as “no adverse effects”.
